Measurements taken from publication PMC6220203, “Cellular signaling and gene expression profiles evoked by a bivalent macrocyclic peptide that serves as an artificial MET receptor agonist” (Scientific Reports, 2018).

Tested on: MET receptor / AKT in EHMES-1 cells
Test: Western blot of MET and AKT phosphorylation with or without PHA665752
Assay type: cell-based, human
Conditions: PHA665752 100 nM, stimulated by 1 nM HGF or 120 nM aMD5-PEG11, 10 min
Procedure: EHMES-1 cells were seeded at 9 × 10^5 cells per well in 6-well plates and cultured overnight. To treat the cells with the MET receptor tyrosine kinase inhibitor, EHMES-1 cells were seeded at 3 × 10^5 cells per well in 24-well plates and cultured with or without 100 nM PHA665752 for 12 h. After serum starvation for 4 h, cells were stimulated with HGF or dimeric macrocycle peptide. After washing with ice-cold PBS, cells were lysed in 200 μl 1 × SDS-PAGE Laemmli sample buffer and treated with ultrasonification (Vibra-cell). Cell lysates were analyzed by SDS-PAGE with a 7.5% polyacrylamide gel and electroblotted onto a PVDF membrane. The membrane was treated with primary antibodies (1:1000), followed by HRP-conjugated secondary antibodies (Dako) (1:2000). Chemiluminescence was visualized and quantitated using ImmunoStar LD (Wako). Original blots are provided by supplementary info.

With `Cc1[nH]c(/C=C2\C(=O)Nc3ccc(S(=O)(=O)Cc4c(Cl)cccc4Cl)cc32)c(C)c1C(=O)N1CCC[C@@H]1CN1CCCC1` [PHA665752] the “inhibition of MET receptor and AKT activation” value was “almost completely blocked the activation of the MET receptor and AKT to basal levels”.
